Read-outs that look alike come from different tables or passages of the source.
Experiments:
Rhesus PDE2A3 = Rhesus PDE2A3 (Macaca mulatta, UniProt B3VTJ2); assay: PDE2 fluorescence polarization (IMAP FP) inhibition assay, rhesus enzyme; type: biochemical, rhesus macaque
Experimental: (§1) The activity of the compounds in accordance with the present invention as PDE2 inhibitors may be readily determined using a fluorescence polarization (FP) methodology (Huang, W., et al., J. Biomol Screen, 2002, 7: 215).
In a typical experiment the PDE2 inhibitory activity of the compounds of the present invention was determined in accordance with the following experimental method. Rhesus PDE2A3 was amplified from rhesus macaque brain cDNA (Biochain Institute, Hayward, Calif.) using primers based on human PDE2A sequence (accession NM_002599.3) where the forward primer containing a Kozak consensus was 5′-[…]-3′ and the reverse primer was 5′-[…]-3′. Amplification with Easy-A High-Fidelity PCR cloning enzyme (Stratagene, La Jolla, Calif.) was 95° C. for 2 minutes followed by thirty three cycles of 95° C. for 40 seconds, 52° C. for 30 seconds, and 72° C. for 2 minutes 48 seconds. Final extension was 72° C. for 7 minutes. The PCR product was TA cloned into pcDNA3.3-TOPO (Invitrogen, Carlsbad, Calif.) according to standard protocol. A consensus sequence was developed from multiple clones and then deposited into GenBank (EU812167). AD293 cells (Stratagene, La Jolla, Calif.) with 70-80% confluency were transiently transfected with rhesus PDE2A3/pcDNA3.3-TOPO using Lipofectamine 2000 according to manufacturer specifications (Invitrogen, Carlsbad, Calif.). Cells were harvested 48 hours post-transfection and lysed by sonication (setting 3, 10×5 sec pulses) in a buffer containing 20 mM HEPES pH 7.4, 1 mM EDTA and Complete Protease Inhibitor Cocktail Tablets (Roche, Indianapolis, Ind.). Lysate was collected by centrifugation at 75,000×g for 20 minutes at 4° C. and supernatant utilized for evaluation of PDE2 activity. The fluorescence polarization assay for cyclic nucleotide phosphodiesterases was performed using an IMAP® FP kit supplied by Molecular Devices, Sunnyvale, Calif. (product # R8139). […] Assays were performed at room temperature in 384-well microtiter plates with an incubation volume of 20.2 μL. Solutions of test compounds were prepared in DMSO and serially diluted with DMSO to yield 8 μL of each of 10 solutions differing by 3-fold in concentration, at 32 serial dilutions per plate. […] 0% of inhibition is determined by using DMSO (1% final concentrations).
A Labcyte Echo 555 (Labcyte, Sunnyvale, Calif.) is used to dispense 200 nL from each well of the titration plate to the 384 well assay plate. Ten microliters of a solution of enzyme (1/2000 final dilution from aliquots; sufficient to produce 20% substrate conversion) was added to the assay plate. Next 10 uL of a separate solution of the substrate FAM-labeled cAMP (50 nM final concentration product # R7506 from Molecular Devices) and the activator cGMP (1 uM final concentration), prepared in the assay buffer (10 mM Tris HCl, pH 7.2, 10 mM MgCl2, 0.05% NaN3 0.01% Tween-20, and 1 mM DTT) was added to the assay plate and shaken to mix. The reaction is allowed to proceed at room temperature for 60 minutes. A binding solution is then made from the kit components, comprised of 80% Solution A, 20% Solution B and binding reagent at a volume of 1/600 the total binding solution. The enzymatic reaction is stopped by addition of 60 μL of the binding solution to each well of the assay plates and the plates are sealed and shaken for 30 seconds. The plate was incubated at room temperature for at least one hour prior to determining the fluorescence polarization (FP). The parallel and perpendicular fluorescence of each well of the plate was measured using a Tecan Genios Pro plate reader (Tecan, Switzerland) or Perkin Elmer EnVision™ plate reader (Waltham, Mass.). Fluorescence polarization (mP) was calculated from the parallel (S) and perpendicular (P) fluorescence of each sample well and the analogous values for the median control well, containing only substrate (So and Po), using the following equation: Polarization (mP)=1000*(S/So−P/Po)/(S/So+P/Po).

human PDE2A1 = human PDE2A1 (Homo sapiens (Human), UniProt O00408); assay: PDE2 fluorescence polarization (IMAP FP) inhibition assay, human enzyme; type: biochemical; details: LabB; read-out: hPDE2 Ki (nM) LabB
Experimental: as §1
Selectivity for PDE2, as compared to other PDE families, was assessed using the IMAPR technology. Human PDE10A2 enzyme was prepared from cytosolic fractions of transiently transfected HEK cells. All other PDE's were GST Tag human enzyme expressed in insect cells and were obtained from BPS Bioscience (San Diego, Calif.): PDE1A (Cat#60010), human PDE2A1(Cat#60020), PDE3A (Cat#60030), PDE4A1A (Cat#60040), PDE5A1 (Cat#60050), PDE6C (Cat#60060), PDE7A (Cat#60070), PDE8A1 (Cat#60080), PDE9A2 (Cat#60090), PDE11A4 (Cat#60110).
Assays for PDE 1 through 11 were performed in parallel at room temperature in 384-well microtiter plates with an incubation volume of 20.2 μL. Solutions of test compounds were prepared in DMSO and serially diluted with DMSO to yield 30 μL of each of ten solutions differing by 3-fold in concentration, at 32 serial dilutions per plate. […] A Labcyte POD 810 (Labcyte, Sunnyvale, Calif.) was used to dispense 200 nL from each well of the titration plate to make eleven copies of the assay plate for each titration, one copy for each PDE enzyme. A solution of each enzyme (dilution from aliquots, sufficient to produce 20% substrate conversion) and a separate solution of FAM-labeled cAMP or FAM-labeled cGMP from Molecular Devices (Sunnyvale, Calif., product # R7506 or cGMP#R7508), at a final concentration of 50 nM were made in the assay buffer (10 mM Tris HCl, pH 7.2, 10 mM MgCl2, 0.05% NaN3 0.01% Tween-20, and 1 mM DTT). Note that the substrate for PDE2 is 50 nM FAM cAMP containing 1000 nM of cGMP. The enzyme and the substrate were then added to the assay plates in two consecutive additions of 10 μL and then shaken to mix. The reaction was allowed to proceed at room temperature for 60 minutes. A binding solution was then made from the kit components, comprised of 80% Solution A, 20% Solution B and binding reagent at a volume of 1/600 the total binding solution. The enzymatic reaction was stopped by addition of 60 μL of the binding solution to each well of the assay plate. The plates were sealed and shaken for 10 seconds. The plates were incubated at room temperature for one hour, then the parallel and perpendicular fluorescence was measured using a Tecan Genios Pro plate reader (Tecan, Switzerland). The apparent inhibition constants for the compounds against all 11 PDE's was determined from the parallel and perpendicular fluorescent readings as described for PDE10 FP assay using the following apparent KM values for each enzyme and substrate combination: PDE1A (FAM cGMP) 70 nM, human PDE2A1 (FAM cAMP) 10,000 nM, PDE3A (FAM cAMP) 50 nM, PDE4A1A (FAM cAMP) 1500 nM, PDE5A1 (FAM cGMP) 400 nM, PDE6C (FAM cGMP) 700 nM, PDE7A (FAM cAMP) 150 nM, PDE8A1 (FAM cAMP) 50 nM, PDE9A2 (FAM cGMP) 60 nM, […] (FAM cAMP) 150 nM, PDE11A4 (FAM cAMP) 1000 nM. The intrinsic PDE2 inhibitory activity of a compound which may be used in accordance with the present invention may be determined by these assays. […]

[1] = LabB, read-out: rhPDE2 Ki (nM) LabB
[2] = LabA, read-out: rhPDE2 Ki (nM) LabA

Rhesus PDE2A3, sequence (B3VTJ2 1-941): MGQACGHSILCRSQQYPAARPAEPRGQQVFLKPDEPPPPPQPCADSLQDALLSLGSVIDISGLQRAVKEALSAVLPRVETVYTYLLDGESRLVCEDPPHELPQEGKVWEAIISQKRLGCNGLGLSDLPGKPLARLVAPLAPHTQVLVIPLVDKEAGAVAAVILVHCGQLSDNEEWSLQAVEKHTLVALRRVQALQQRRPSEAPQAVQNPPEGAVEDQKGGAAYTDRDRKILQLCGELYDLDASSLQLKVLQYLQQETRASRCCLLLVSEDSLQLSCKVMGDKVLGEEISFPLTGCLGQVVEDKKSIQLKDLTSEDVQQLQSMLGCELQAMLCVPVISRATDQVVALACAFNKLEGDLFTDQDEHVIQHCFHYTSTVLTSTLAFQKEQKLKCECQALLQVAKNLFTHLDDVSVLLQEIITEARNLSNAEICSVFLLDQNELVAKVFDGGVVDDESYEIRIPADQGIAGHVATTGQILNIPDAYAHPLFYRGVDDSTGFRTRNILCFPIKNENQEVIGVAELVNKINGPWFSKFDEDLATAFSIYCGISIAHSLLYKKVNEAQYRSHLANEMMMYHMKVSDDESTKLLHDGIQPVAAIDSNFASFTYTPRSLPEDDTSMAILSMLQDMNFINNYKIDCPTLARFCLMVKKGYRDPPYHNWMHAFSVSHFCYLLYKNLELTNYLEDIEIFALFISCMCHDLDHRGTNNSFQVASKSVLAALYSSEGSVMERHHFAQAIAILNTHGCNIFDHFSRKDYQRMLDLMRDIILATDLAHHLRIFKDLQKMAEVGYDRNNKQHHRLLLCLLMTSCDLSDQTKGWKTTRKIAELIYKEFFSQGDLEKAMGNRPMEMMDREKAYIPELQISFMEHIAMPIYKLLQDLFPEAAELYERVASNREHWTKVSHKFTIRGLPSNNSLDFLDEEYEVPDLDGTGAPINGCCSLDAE
human PDE2A1, sequence (O00408 other isoform, or with tags, fused parts or gaps): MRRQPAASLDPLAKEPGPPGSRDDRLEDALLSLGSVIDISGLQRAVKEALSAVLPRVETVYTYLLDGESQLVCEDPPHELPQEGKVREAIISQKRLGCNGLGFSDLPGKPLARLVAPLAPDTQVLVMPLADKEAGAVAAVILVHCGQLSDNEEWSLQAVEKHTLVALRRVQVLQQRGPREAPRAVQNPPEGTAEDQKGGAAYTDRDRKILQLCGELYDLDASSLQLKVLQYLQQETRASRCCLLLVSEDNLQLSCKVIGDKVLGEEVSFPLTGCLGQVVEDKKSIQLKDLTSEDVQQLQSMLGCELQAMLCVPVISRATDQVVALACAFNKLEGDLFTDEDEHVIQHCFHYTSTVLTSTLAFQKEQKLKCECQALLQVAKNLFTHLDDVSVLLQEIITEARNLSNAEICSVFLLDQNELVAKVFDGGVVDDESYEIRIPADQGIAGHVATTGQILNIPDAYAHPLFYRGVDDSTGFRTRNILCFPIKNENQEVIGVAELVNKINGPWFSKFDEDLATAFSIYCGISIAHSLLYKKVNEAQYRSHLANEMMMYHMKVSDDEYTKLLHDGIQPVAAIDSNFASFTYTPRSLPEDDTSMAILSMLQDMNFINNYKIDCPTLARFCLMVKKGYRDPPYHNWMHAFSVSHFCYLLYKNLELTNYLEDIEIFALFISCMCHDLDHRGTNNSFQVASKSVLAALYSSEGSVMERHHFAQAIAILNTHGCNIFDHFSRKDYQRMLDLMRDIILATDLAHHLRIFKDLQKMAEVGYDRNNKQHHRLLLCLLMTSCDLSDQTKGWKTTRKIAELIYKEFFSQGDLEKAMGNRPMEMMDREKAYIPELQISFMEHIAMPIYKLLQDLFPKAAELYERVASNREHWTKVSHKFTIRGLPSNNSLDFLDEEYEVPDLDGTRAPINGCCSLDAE

SMILES	Ki (Rhesus PDE2A3; [1])	Ki (human PDE2A1)	Ki (Rhesus PDE2A3; [2])
Cc1nc(-c2cn(C(c3ccc(C(F)(F)F)cc3F)C(C)C)cn2)cc(=O)[nH]1 (centres unmarked) [Example 21, 6-(1-(1-(2-Fluoro-4-(trifluoromethyl)phenyl)-2-methylpropyl)-1H-imidazol-4-yl)-2-methylpyrimidin-4(3H)-one]	110 nM		
Cc1nc(-c2nc(C(C)c3ccc(C(F)(F)F)cc3)cs2)cc(=O)[nH]1 (centres unmarked) [Example 3, 2-Methyl-6-(4-(1-(4-(trifluoromethyl)phenyl)ethyl)thiazol-2-yl)pyrimidin-4(3H)-one]			532 nM
Cc1nc(-c2nnc([C@H](C)c3ccc(C(F)(F)F)cc3)o2)cc(=O)[nH]1 (single isomer, unassigned) [Example 10]	699 nM		470 nM
Cc1nc(-c2cn(C(C)c3ccc(C(F)(F)F)cc3)cn2)cc(=O)[nH]1 (single isomer, unassigned) [Example 16, (R)- or (S)-2-methyl-6-(1-(1-(4-(trifluoro-methyl)phenyl)ethyl)-1H-imidazol-4-yl) pyrimidin-4 (3H)-one]			340 nM
CCC(c1ccc(C(F)(F)F)cc1F)n1cnc(-c2cc(=O)[nH]c(C)n2)c1 (centres unmarked) [Example 20, 6-(1-(1-(2-Fluoro-4-(trifluoromethyl)phenyl)propyl)-1H-imidazol-4-yl)-2-methylpyrimidin-4(3H)-one]	123 nM		
Cc1nc(-c2noc(C(C)c3ccc(C(F)(F)F)cc3)n2)cc(=O)[nH]1 (centres unmarked) [Example 11, 2-Methyl-6-(5-(1-(4-(trifluoromethyl)phenyl)ethyl)-1,2,4-oxadiazol-3-yl)pyrimidin-4(3H)-one]	1750 nM		1080 nM
Cc1nc(-c2nc(C(C)c3ccc(C(F)(F)F)cc3)no2)cc(=O)[nH]1 (centres unmarked) [Example 12, 2-Methyl-6-(3-(1-(4-(trifluoromethyl)phenyl)ethyl)-1,2,4-oxadiazol-5-yl)pyrimidin-4(3H)-one]	2410 nM		1870 nM
Cc1nc(-c2ncc(C(C)c3ccc(C(F)(F)F)cc3)[nH]2)cc(=O)[nH]1 (centres unmarked) [Example 13, 2-Methyl-6-(5-(1-(4-(trifluoromethyl)phenyl)ethyl)-1H-imidazol-2-yl)pyrimidin-4(3H)-one]	631 nM		868 nM
Cc1nc(-c2cn([C@H](C)c3ccc(C(F)(F)F)cc3F)cn2)cc(=O)[nH]1 (single isomer, unassigned) [Example 14]			298 nM

Next, values leading:

Ki (Rhesus PDE2A3; [1])	Ki (human PDE2A1)	Ki (Rhesus PDE2A3; [2])	SMILES
	890 nM		Cc1nc(-c2cc([C@H](C)c3ccc(C(C)(C)O)cc3)ncn2)cc(=O)[nH]1 (single isomer, unassigned) [Example 46]
	39 nM		Cc1nc(-c2cc([C@@H](C)c3ccc(C(F)(F)F)cc3F)ncn2)cc(=O)[nH]1 (single isomer, unassigned) [Example 30]
		826 nM	Cc1nc(-c2cncc([C@@H](C)c3ccc(C(F)(F)F)cc3)c2)cc(=O)[nH]1 (single isomer, unassigned) [Example 24]
	30 nM		Cc1nc(-c2cc(C(C)c3ccc(C(F)F)c(F)c3)ncn2)cc(=O)[nH]1 (single isomer, unassigned) [Example 38, (R)- or (S)-6′-(1-(4-(difluoro-methyl)-3-fluoro-phenyl)ethyl)-2-methyl-[4,4′-bipyrimidin]-6(1H)-one]
		1810 nM	Cc1nc(-c2cncc(C(C)(O)c3ccc(C(F)(F)F)cc3)c2)cc(=O)[nH]1 (centres unmarked) [Example 26, 6-(5-(1-Hydroxy-1-(4-(trifluoromethyl)phenyl)ethyl)pyridin-3-yl)-2-methylpyrimidin-4(3H)-one]
868 nM		920 nM	Cc1nc(-c2cc(C(C)c3ccc(C(F)(F)F)cc3)ccn2)cc(=O)[nH]1 (centres unmarked) [Example 22, 2-methyl-6-(4-(1-(4-(trifluoromethyl)phenyl)ethyl)pyridin-2-yl)pyrimidin-4(3H)-one]
		> 1000 nM	Cc1nc(-c2cncc([C@@H](C)c3ccc(C(F)(F)F)cc3)c2)cc(=O)[nH]1 (single isomer, unassigned) [Example 23]
		12900 nM	Cc1nc(-c2cncc(C(O)c3ccc(C(F)(F)F)cc3)c2)cc(=O)[nH]1 (centres unmarked) [Example 25, 6-(5-(Hydroxy(4-(trifluoromethyl)phenyl)methyl)pyridin-3-yl)-2-methylpyrimidin-4(3H)-one]
1660 nM		1710 nM	Cc1nc(-c2cncc(C(C)c3ccc(C(F)(F)F)cc3)n2)cc(=O)[nH]1 (centres unmarked) [Example 29, 2-Methyl-6-(6-(1-(4-(trifluoromethyl)phenyl)ethyl)pyrazin-2-yl)pyrimidin-4(3H)-one]
		2880 nM	Cc1nc(-c2ccnc(C(C)(O)c3ccc(C(F)(F)F)cc3)c2)cc(=O)[nH]1 (centres unmarked) [Example 28, 6-(2-(1-hydroxy-1-(4-(trifluoromethyl)phenyl)ethyl)pyridin-4-yl)-2-methylpyrimidin-4(3H)-one]
		1270 nM	Cc1nc(-c2ccnc(C(C)c3ccc(C(F)(F)F)cc3)c2)cc(=O)[nH]1 (centres unmarked) [Example 27, 2-Methyl-6-(2-(1-(4-(trifluoromethyl)phenyl)ethyl)pyridin-4-yl)pyrimidin-4(3H)-one]

From patent US10195201B2, “Heteroaryl-pyrimidinone compounds as PDE2 inhibitors” (Merck Sharp & Dohme Corp., priority 2015, dated 2019)
